In patent publication US10167266B2, “Sodium channel blockers” (Parion Sciences, Inc., priority 2002, dated 2019):
“And” between values parts separate entries of the source, which are not always exact repeats. Identical values can stand only once. Counter-ions that a name gives are not always drawn.

Tested on: sodium channel (ENaC), canine bronchial epithelia
Test: Sodium channel blocking activity: inhibition of short circuit current (ISC) in airway epithelial monolayers in Ussing chambers
Format: cell-based
Details: for Fold Enhancement Over Amiloride / Fold Amiloride*: potency in canine bronchial epithelia relative to amiloride; for Fold potency relative to amiloride: Example 51
Description: One assay used to assess mechanism of action and/or potency of the compounds of the present invention involves the determination of lumenal drug inhibition of airway epithelial sodium currents measured under short circuit current (ISC) using airway epithelial monolayers mounted in Ussing chambers. Cells obtained from freshly excised human, dog, sheep or rodent airways are seeded onto porous 0.4 micron Snapwell™ Inserts (CoStar), cultured at air-liquid interface (ALI) conditions in hormonally defined media, and assayed for sodium transport activity (ISC) while bathed in Krebs Bicarbonate Ringer (KBR) in Using chambers. All test drug additions are to the lumenal bath with half-log dose addition protocols (from 1×10^−11 M to 3×10^−5 M), and the cumulative change in ISC (inhibition) recorded. All drugs are prepared in dimethyl sulfoxide as stock solutions at a concentration of 1×10^−2 M and stored at −20° C. Eight preparations are typically run in parallel; two preparations per run incorporate amiloride and/or benzamil as positive controls. After the maximal concentration (5×10^−5 M) is administered, the lumenal bath is exchanged three times with fresh drug-free KBR solution, and the resultant ISC measured after each wash for approximately 5 minutes in duration. Reversibility is defined as the percent return to the baseline value for sodium current after the third wash. All data from the voltage clamps are collected via a computer interface and analyzed off-line.
Dose-effect relationships for all compounds are considered and analyzed by the Prism 3.0 program. IC50 values, maximal effective concentrations, and reversibility are calculated and compared to amiloride and benzamil as positive controls.
Amiloride was also tested in this assay as a positive control. The results for the compounds of the present invention are reported as fold-enhancement values relative to amiloride.

## N=C(NCCc1ccc(N)cc1)NC(=O)c1nc(Cl)c(N)nc1N [drawing 47: n=2, 4, NH2, 4-(4-Aminophenyl)ethylamidino-3,5-diamino-6-chloropyrazinecarboxamide hydrochloride]
Example 28
  Fold Enhancement Over Amiloride: 12.7 fold

## CC1(C)OCC(COc2ccc(CCCCNC(=N)NC(=O)c3nc(Cl)c(N)nc3N)cc2)O1 (stereo not drawn) [drawing 48: R=H3CxCH3*, 4-[4-(2,2 Dimethyl-[1,3]dioxolan-4 yl)methyloxyphenyl]butylamidino-3,5-diamino-6-chloropyrazinecarboxamide]
Example 29
  Fold Enhancement Over Amiloride: 91 fold

## Cl.N=C(NCCCCc1ccc(OCC(O)CO)cc1)NC(=O)c1nc(Cl)c(N)nc1N (stereo not drawn) [drawing 48: R=H, 4-[4(2,3-Dihydroxypropyloxyl)phenyl]butylamidino-3,5-diamino-6-chloropyrazinecarboxamide hydrochloride]
Example 29
  Fold Enhancement Over Amiloride: 124 fold
Example 47
  Fold Amiloride*: 51.95 (50) fold
Example 48
  Fold Amiloride*: 51.95 (79) fold
Example 50
  Fold Amiloride*: 51.55 (79) fold

## CC(=O)OCC(COc1ccc(CCCCNC(=N)NC(=O)c2nc(Cl)c(N)nc2N)cc1)OC(C)=O (stereo not drawn) [drawing 48: R=drawing 49, 4-[4-(2,3-Diacetoxypropyloxy)phenyl]butylamidino-3,5-diamino-6-chloropyrazinecarboxamide]
Example 29
  Fold Enhancement Over Amiloride: 36 fold

## COCCOc1ccc(CCCCNC(=N)NC(=O)c2nc(Cl)c(N)nc2N)cc1.Cl [drawing 50: n=1, 4-[4-(1,4-Dioxapent-1-yl)phenyl]butylamidino-3,5-diamino-6-chloropyrazinecarboxamide hydrochloride]
Example 30
  Fold Enhancement Over Amiloride: 87 fold
Example 48
  Fold Amiloride*: 51.5 ± 14.9 (2) fold

## COCCOCCOc1ccc(CCCCNC(=N)NC(=O)c2nc(Cl)c(N)nc2N)cc1 [drawing 50: n=2, 4-[4-(1,4,7-Trioxaoct-1-yl)phenyl]-butyl amidino-3,5-diamino-6-chloropyrazinecarboxamide hydrochloride]
Example 30
  Fold Enhancement Over Amiloride: 42 fold
Example 48
  Fold Amiloride*: 76.1 (1) fold

## COCCOCCOCCOCCOc1ccc(CCCCNC(=N)NC(=O)c2nc(Cl)c(N)nc2N)cc1.Cl [drawing 50: n=4, 4-[4-(1,4,7,10,13-pentoxatetradec-1-yl)phenyl]-butylamidino-3,5-diamino-6-chloropyrazinecarboxamide hydrochloride]
Example 30
  Fold Enhancement Over Amiloride: 28.7 fold

## COC(=O)C1OC(Oc2ccc(CCCCNC(N)=NC(=O)c3nc(Cl)c(N)nc3N)cc2)C(OC(C)=O)C(OC(C)=O)C1OC(C)=O (stereo not drawn) [drawing 51: R^5=40, 4-[4-(Methyl-2,3,4-tri-O-acetyl-glucopyranonuronate-1-O-yl)phenyl]butylamidino-3,5-diamino-6-chloropyrazinecarboxamide]
Example 31
  Fold Enhancement Over Amiloride: 65 fold

## Cl.N=C(NCCCCc1ccc(CO)cc1)NC(=O)c1nc(Cl)c(N)nc1N [drawing 51: R^5=—CH2OH, 4-(4-Hydroxymethylphenyl)butylamidino-3,5-diamino-6-chloropyrazinecarboxamide hydrochloride]
  Fold potency relative to amiloride: 50.9 ± 19.8 (3)
Example 31
  Fold Enhancement Over Amiloride: 57 fold
Example 41
  Fold Amiloride*: 50.9 ± 19.8 (3) fold
Example 44
  Fold Amiloride*: 50.9 ± 19.8 (3) fold

## COC(=O)c1ccc(CCCCNC(=N)NC(=O)c2nc(Cl)c(N)nc2N)cc1 [drawing 51: R^5=—CO2CH3, 4-(4-Carboxymethylphenyl)butylamidino-3,5-diamino-6-chloropyrazinecarboxamide hydrochloride]
Example 31
  Fold Enhancement Over Amiloride: 26.5 fold

## NC(=NC(=O)c1nc(Cl)c(N)nc1N)NCCCCc1ccc(OC2OC(C(=O)O)C(O)C(O)C2O)cc1 (stereo not drawn) [drawing 51: R^5=—O-Glucuronide Na^+ Salt, 4-[4-(5-Carboxy-glucopyranonuronate-1-O-yl)-phenyl]butylamidino-3,5-diamino-6-chloropyrazinecarboxamide]
Example 31
  Fold Enhancement Over Amiloride: 11.2 fold

## NC(=NC(=O)c1nc(Cl)c(N)nc1N)NCCCCc1ccc(OS(=O)(=O)O)cc1 [drawing 51: R^5=—O—SO3H, 4-(4-Sulfatephenyl)butylamidino-3,5-diamino-6-chloropyrazinecarboxamide]
Example 31
  Fold Enhancement Over Amiloride: 27.7 fold

## N=C(NCCCCc1ccc(N)cc1)NC(=O)c1nc(Cl)c(N)nc1N [drawing 60: R=NH2, N=0, 4-[4-(4-Amino)phenyl)]butylamidino-3,5-diamino-6-chloropyrazinecarboxamide hydrochloride]
  Fold potency relative to amiloride: 32.6 ± 2
Example 41
  Fold Amiloride*: 32.6 ± 2.0 (3) fold
Example 43
  Fold Amiloride*: 32.6 ± 2 (3) fold
Example 48
  Fold Amiloride*: 32.6 ± 2 (3) ^ fold

## N=C(NCCCCc1ccc(CCO)cc1)NC(=O)c1nc(Cl)c(N)nc1N [drawing 60: R=OH, N=2, 4-(4-(2-Hydroxyethyl)phenyl)butylamidino-3,5-diamino-6-chloropyrazinecarboxamide hydrochloride]
Example 41
  Fold Amiloride*: 79.2 ± 30.6 (4) fold
Example 47
  Fold Amiloride*: 79.2 ± 30.6 (4) fold

## N=C(NCCCCc1ccc(OCCN)cc1)NC(=O)c1nc(Cl)c(N)nc1N [drawing 61: R=NH2, n=2, 4-[4-(2-aminoethyloxy)phenyl)butylamidino-3,5-diamino-6-chloropyrazinecarboxamide hydrochloride]
  Fold potency relative to amiloride: 56.5 ± 0
Example 42, hydrochloride
  Fold Amiloride*: 60.1 ± 1.3 (2) fold and 56.5 ± 0 (4) ^ fold
Example 45
  Fold Amiloride*: 56.5 ± 24 (4) fold
Example 48
  Fold Amiloride*: 84.9 ± 30.3 (6) fold

## Cl.NC(=NCCCCc1ccc(OCCO)cc1)NC(=O)c1nc(Cl)c(N)nc1N [drawing 61: R=OH, n=2]
  Fold potency relative to amiloride: 84.9 ± 30.3
Example 42
  Fold Amiloride*: 84.9 ± 30.3 (6) fold
Example 47
  Fold Amiloride*: 84.9 ± 30.3 (6) fold
Example 50
  Fold Amiloride*: 80.3 ± 25.5 (9) fold

## N=C(NCCCCc1ccc(OCCCO)cc1)NC(=O)c1nc(Cl)c(N)nc1N [drawing 61: R=OH, n=3, 4-[4-(3-Hydroxypropyloxy)phenyl)]butylamidino-3,5-diamino-6-chloropyrazinecarboxamide hydrochloride]
  Fold potency relative to amiloride: 105.2 ± 26.6
Example 47
  Fold Amiloride*: 105.2 ± 26.6 (7) fold

## Cl.NC(=NCCCCc1ccc(OCCCO)cc1)NC(=O)c1nc(Cl)c(N)nc1N [drawing 61: R=OH, n=3]
Example 42
  Fold Amiloride*: 105.2 ± 26.6 (7) fold

## N=C(NCCCCc1ccc(C(=O)NCCO)cc1)NC(=O)c1nc(Cl)c(N)nc1N [drawing 62: X=C═O, Y=NH(CH2)2—OH, 4-{4-[N-(3,5-diamino-6-chloropyrazine-2-carbonyl)guanidino]butyl}-N-(2-hydroxyethyl)benzamide hydrochloride]
Example 43
  Fold Amiloride*: 28.5 (1) fold

## CC(C)(C)OC(=O)NCCOc1ccc(CCCCNC(N)=NC(=O)c2nc(Cl)c(N)nc2N)cc1 [drawing 64: X=NHCO2(CH3)3, [2-(4-{4-[N′-(3,5-Diamino-6-chloropyrazine-2-carbonyl)guanidino]butyl}phenoxy)ethyl]-carbamic acid tert-butyl ester]
Example 45
  Fold Amiloride*: 51.7 ± 10.1 (2) fold
Example 49
  Fold Amiloride*: 51.7 ± 10.1 (2) fold

## N=C(NCCCCc1ccc(OCC(N)=O)cc1)NC(=O)c1nc(Cl)c(N)nc1N [drawing 65: R=—NH2, 2-{4-[N′-(3,5-diamino-6-chloropyrazine-2-carbonyl)guanidino]-4-butylphenoxy}acetamide hydrochloride]
Example 46
  Fold Amiloride*: 48.2 ± 24.1 (7) fold

## Cl.Cl.N=C(NCCCCc1ccc(OCCNC[C@H](O)[C@H](O)CO)cc1)NC(=O)c1nc(Cl)c(N)nc1N [drawing 67: O CH2 CH2 NH R^a, N-[4-(4-{2-[(2S,3R)-2,3,4-trihydroxybutylamino]ethoxy}phenyl)butyl]-N′-(3,5-diamino-6-chloropyrazine-2-carbonyl)guanidine dihydrochloride]
Example 48
  Fold Amiloride*: 52.9 ± 14.3 (5) fold

## Cl.Cl.N=C(NCCCCc1ccc(OCCN(C[C@H](O)[C@H](O)CO)C[C@H](O)[C@H](O)CO)cc1)NC(=O)c1nc(Cl)c(N)nc1N [drawing 67: O CH2 CH2 NR R^a,c (r13), N-[4-(4-{2-[bis-((2S,3R)-2,3,4-trihydroxybutyl)amino]ethoxy}phenyl)butyl]-N′-(3,5-diamino-6-chloropyrazine-2-carbonyl)guanidine dihydrochloride]
Example 48
  Fold Amiloride*: 73.2 ± 49.3 (9) fold

## CCOC(=O)COc1ccc(CCCCNC(N)=NC(=O)c2nc(Cl)c(N)nc2N)cc1 [drawing 68: OCH2CO2ET, (4-{4-[N′-(3,5-Diamino-6-chloropyrazine-2-carbonyl)guanidino]butyl}phenoxy)acetic acid ethyl ester]
Example 49
  Fold Amiloride*: 20 (1) fold

## N=C(NCCCCc1cccc(OCC(O)CO)c1)NC(=O)c1nc(Cl)c(N)nc1N (stereo not drawn) [drawing 69: R=CH2OH, Meta, 4-[3-(2-,3-Dihydroxypropyloxyl)phenyl)]butylamidino-3,5-diamino-6-chloropyrazinecarboxamide hydrochloride]
Example 50
  Fold Amiloride*: 40 (1) fold
